Measured values from patent US7902138B2, “Liquid detergent composition” (The Sun Products Corporation, priority 2003, dated 2011).

Tested on: Protease enzyme
Assay: Residual protease activity in liquid detergent formulation after storage at 37° C. (tetrapeptide substrate assay)
Format: biochemical
Details: activity determined at 40° C., TRIS pH 9, relative to t=0; for Residual activity after 2 weeks, 0.05% BHT / Residual activity after 4 weeks, 0.05% BHT: 'base' liquid detergent formulation + 0.06% by weight perfume component + 0.05% by weight BHT; for Residual activity after 2 weeks, 0.05% BHT / Residual activity after 2 weeks, No BHT: 2 weeks storage at 37° C.; for Residual activity after 4 weeks, 0.05% BHT / Residual activity after 4 weeks, No BHT: 4 weeks storage at 37° C.; for Residual activity after 2 weeks, No BHT / Residual activity after 4 weeks, No BHT: 'base' liquid detergent formulation + 0.06% by weight perfume component
Method: To various samples of this ‘base’ liquid formulation 0.06% by weight based on said formulation of several types of perfume component—as indicated in the tables below—were added such that, as a result, each sample contains a different type of perfume component. To other samples of this ‘base’ formulation not only 0.06% by weight of said perfume components but also 0.05% by weight BHT (2,6-di-tert-butyl hydroxy toluene) were added.
The residual activity of the protease enzyme in all thus-formed formulations after 2 weeks and 4 weeks storage at 37° C., was determined at 40° C. in a TRIS pH 9 buffer and using tetrapeptide as substrate. For this determination, the following protocol was used:
Samples of 70 mg of the tested liquid formulation were diluted in 10.00 ml MilliQ water. 10 μl of this solution was added to an assay of 205 μl containing 74.4 mM TRIS pH9 and 0.494 mM tetrapeptide (succinyl-Ala-Ala-Pro-Phe-p-Nitroanilide). The absorbance of the tested samples at a wavelength of 450 nm was measured for 15 minutes at 40° C., using a spectrophotometer. The absolute changes in absorbance as compared to the absorbance measured on a freshly prepared calibration sample were correlated to the measured activity of such freshly prepared sample. The measured protease enzyme activity is expressed as GU/ml.
The residual enzyme activity (expressed as %) is the enzyme activity after storage of the liquid formulation concerned divided by the enzyme activity measured at t=0.
Tables 1 and 2 show the effect of the addition of 0.05% by weight of BHT on the residual enzyme activity in ‘base’ liquid detergent formulations additionally containing 0.06% by weight of the indicated perfume components, after 2 weeks storage at 37° C. respectively 4 weeks storage at 37° C.

Compound: CC1=CC(C)C(C=O)CC1 (centres unmarked) [Zestover]
- Residual activity after 2 weeks, 0.05% BHT: 82%
- Residual activity after 4 weeks, 0.05% BHT: 72%
- Residual activity after 2 weeks, No BHT: 16%
- Residual activity after 4 weeks, No BHT: 5%

Compound: CCC(=O)/C=C/C1C(C)=CCCC1(C)C (stereo not drawn) [Alpha methylionone]
- Residual activity after 2 weeks, 0.05% BHT: 84%
- Residual activity after 4 weeks, 0.05% BHT: 78%
- Residual activity after 2 weeks, No BHT: 39%
- Residual activity after 4 weeks, No BHT: 14%

Compound: CC1=CCC(=C(C)C)CC1 [Terpinolene]
- Residual activity after 2 weeks, 0.05% BHT: 85%
- Residual activity after 4 weeks, 0.05% BHT: 79%
- Residual activity after 2 weeks, No BHT: 51%
- Residual activity after 4 weeks, No BHT: 17%

Compound: CCCCCCCCCCC=CC=O [Tridecyclenaldehyde]
- Residual activity after 2 weeks, 0.05% BHT: 70%
- Residual activity after 4 weeks, 0.05% BHT: 54%
- Residual activity after 2 weeks, No BHT: 14%
- Residual activity after 4 weeks, No BHT: 4%

Compound: Terpinegene G
- Residual activity after 2 weeks, 0.05% BHT: 72%
- Residual activity after 4 weeks, 0.05% BHT: 62%
- Residual activity after 2 weeks, No BHT: 48%
- Residual activity after 4 weeks, No BHT: 23%

Compound: CC(C=O)Cc1ccc(C(C)(C)C)cc1 (centres unmarked) [Lilial]
- Residual activity after 2 weeks, 0.05% BHT: 80%
- Residual activity after 4 weeks, 0.05% BHT: 68%
- Residual activity after 2 weeks, No BHT: 39%
- Residual activity after 4 weeks, No BHT: 9%

Compound: Octenal
- Residual activity after 2 weeks, 0.05% BHT: 68%
- Residual activity after 4 weeks, 0.05% BHT: 46%
- Residual activity after 2 weeks, No BHT: 13%
- Residual activity after 4 weeks, No BHT: 3%

Compound: CC(C)=C1CC[C@@H](C)CC1=O [Pulegone]
- Residual activity after 2 weeks, 0.05% BHT: 82%
- Residual activity after 4 weeks, 0.05% BHT: 76%
- Residual activity after 2 weeks, No BHT: 45%
- Residual activity after 4 weeks, No BHT: 16%
